Laboratory results published in ChEMBL document CHEMBL1201862, “PubChem BioAssay data set” (2004).
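Compound exposure: 48 hours, 5 concentrations, 96-well plates. The concentration for 50% growth inhibition is given as GI50.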 Calls of active or inactive are those of the source. Cut-off read from the data, not from the text of the source: active = GI50 up to about 1.1 µM and inactive = higher.

How the values were obtained:
Assay in all cases: DTP human tumour cell line panel, 48 h
BT-549 = system: BT-549
DU-145 = system: DU-145
HCT-116 = system: HCT-116
NCI-H226 = system: NCI-H226
NCI-H460 = system: NCI-H460
RXF 393 = system: RXF 393
SR = system: SR
SW-620 = system: SW-620
T47D = system: T47D
DMS-114 = system: DMS-114
DMS-273 = system: DMS-273
EKVX = system: EKVX
HOP-18 = system: HOP-18
M19-MEL = system: M19-MEL
NCI/ADR-RES = system: NCI/ADR-RES
OVCAR-5 = system: OVCAR-5
SK-MEL-28 = system: SK-MEL-28
SNB-78 = system: SNB-78
XF498 = system: XF498
Hs-578T = system: Hs-578T

Row | Structure (SMILES) | GI50 (BT-549) | GI50 (DU-145) | GI50 (HCT-116) | GI50 (NCI-H226) | GI50 (NCI-H460) | GI50 (RXF 393) | GI50 (SR) | GI50 (SW-620) | GI50 (T47D) | GI50 (DMS-114) | GI50 (DMS-273) | GI50 (EKVX) | GI50 (HOP-18) | GI50 (M19-MEL) | GI50 (NCI/ADR-RES) | GI50 (OVCAR-5) | GI50 (SK-MEL-28) | GI50 (SNB-78) | GI50 (XF498) | GI50 (Hs-578T)
1 | COC1/C=C/C=C(/C)Cc2cc(O)c(Cl)c(c2)N(C)C(=O)CC(OC(=O)C(C)C)C2(C)OC2C(C)C2CC1(O)NC(=O)O2 (centres undefined) | < 0.01 µM (active) | < 0.01 µM (active) | < 0.01 µM (active) | > 100 µM (inactive) | < 0.01 µM (active) | < 0.01 µM (active) | < 0.01 µM (active) | < 0.01 µM (active) | > 100 µM (inactive) | – | – | – | – | – | – | – | – | – | – | –
2 | c1ccc2cc3c(cc2c1)OP1(Oc2cccc4cccnc24)(O3)Oc2cc3ccccc3cc2O1 | – | – | 3.24 µM (inactive) | 9.89 µM (inactive) | 2.52 µM (inactive) | 7.29 µM (inactive) | – | 2.81 µM (inactive) | – | 1.79 µM (inactive) | 3.49 µM (inactive) | 3.37 µM (inactive) | 9.48 µM (inactive) | 9.89 µM (inactive) | 1.28 µM (inactive) | 4.43 µM (inactive) | 15.8 µM (inactive) | 26.4 µM (inactive) | 3.71 µM (inactive) | –
3 | CCOC(=O)C[n+]1ccc2c([nH]c3cc(OC)ccc32)c1C | – | – | 61 µM (inactive) | 36.8 µM (inactive) | > 88.1 µM (inactive) | > 100 µM (inactive) | – | > 100 µM (inactive) | – | > 83.2 µM (inactive) | > 100 µM (inactive) | > 100 µM (inactive) | > 100 µM (inactive) | > 100 µM (inactive) | > 100 µM (inactive) | > 100 µM (inactive) | > 100 µM (inactive) | > 100 µM (inactive) | 25.9 µM (inactive) | –
4 | Cc1ccc(C(=O)N/N=C(\N=N\c2ccc([N+](=O)[O-])cc2)c2ccc(N(CCC#N)CCC#N)cc2C)cc1 | 47.1 µM (inactive) | 97.1 µM (inactive) | 54.8 µM (inactive) | 31.3 µM (inactive) | 79.3 µM (inactive) | 16.7 µM (inactive) | 63.8 µM (inactive) | > 100 µM (inactive) | 26.6 µM (inactive) | – | – | > 100 µM (inactive) | – | – | > 100 µM (inactive) | > 100 µM (inactive) | 97.1 µM (inactive) | – | – | 50.1 µM (inactive)
5 | Cc1ccc(OP2(=O)Oc3ccc4ccccc4c3CN2c2ccc(Cl)cc2)cc1C (centres undefined) | – | – | > 100 µM (inactive) | > 100 µM (inactive) | > 100 µM (inactive) | > 100 µM (inactive) | – | > 100 µM (inactive) | – | > 100 µM (inactive) | > 100 µM (inactive) | > 100 µM (inactive) | > 100 µM (inactive) | > 100 µM (inactive) | > 100 µM (inactive) | > 100 µM (inactive) | > 100 µM (inactive) | > 100 µM (inactive) | > 100 µM (inactive) | –
6 | O=[N+]([O-])c1cnccc1-n1nnc2ccccc21 | – | – | 24.4 µM (inactive) | 18.9 µM (inactive) | 21.5 µM (inactive) | 17.3 µM (inactive) | – | 24.3 µM (inactive) | – | 11.5 µM (inactive) | 14.1 µM (inactive) | 22 µM (inactive) | 14.1 µM (inactive) | 15.3 µM (inactive) | 20.2 µM (inactive) | 32.1 µM (inactive) | 19.9 µM (inactive) | 27 µM (inactive) | 13.8 µM (inactive) | –
7 | O=C1OCc2cccc3c2-c2c1cccc2C(=O)OC3 | – | – | > 100 µM (inactive) | – | – | > 100 µM (inactive) | > 100 µM (inactive) | – | – | > 100 µM (inactive) | – | > 100 µM (inactive) | > 100 µM (inactive) | > 100 µM (inactive) | – | – | > 100 µM (inactive) | > 100 µM (inactive) | – | –
8 | BrC1=CN2C[n+]3cc(Br)c4ccccc4c3N=C2c2ccccc21 | 16.9 µM (inactive) | 16.6 µM (inactive) | – | – | 13.8 µM (inactive) | – | 3.18 µM (inactive) | 12.3 µM (inactive) | 4.14 µM (inactive) | – | – | – | – | – | > 100 µM (inactive) | 17.9 µM (inactive) | 2.26 µM (inactive) | – | – | 22.1 µM (inactive)
9 | S=C(NCCCCCCNC(=S)Nc1c2ccccc2nc2ccccc12)Nc1c2ccccc2nc2ccccc12 | – | – | 50.6 µM (inactive) | 10.8 µM (inactive) | 43.1 µM (inactive) | > 100 µM (inactive) | – | 52.8 µM (inactive) | – | – | 65.9 µM (inactive) | > 100 µM (inactive) | > 100 µM (inactive) | > 100 µM (inactive) | > 88.1 µM (inactive) | > 84.1 µM (inactive) | > 100 µM (inactive) | > 87.7 µM (inactive) | > 89.9 µM (inactive) | –
10 | O=C(O)C1CCC(=O)N1S(=O)(=O)c1ccccc1 (centres undefined) | – | – | > 100 µM (inactive) | > 100 µM (inactive) | > 100 µM (inactive) | > 100 µM (inactive) | – | > 100 µM (inactive) | – | > 100 µM (inactive) | > 100 µM (inactive) | > 100 µM (inactive) | > 100 µM (inactive) | > 100 µM (inactive) | > 100 µM (inactive) | > 100 µM (inactive) | > 100 µM (inactive) | > 100 µM (inactive) | > 100 µM (inactive) | –
11 | CO/N=C(\C)c1ccc(Nc2nc3ccccc3c3occc23)cc1 | 16.8 µM (inactive) | 15.5 µM (inactive) | 14.3 µM (inactive) | 8.18 µM (inactive) | 15.6 µM (inactive) | – | 24.7 µM (inactive) | – | 12.6 µM (inactive) | – | – | 14 µM (inactive) | – | – | 15.6 µM (inactive) | 16.3 µM (inactive) | – | – | – | 12.5 µM (inactive)
12 | CSCSCC(N)CO.Cc1[nH]c(=O)[nH]c(=O)c1/C=C/C(=O)O | – | – | > 625 µM (inactive) | > 625 µM (inactive) | > 625 µM (inactive) | > 625 µM (inactive) | – | > 625 µM (inactive) | – | > 625 µM (inactive) | > 625 µM (inactive) | > 625 µM (inactive) | > 625 µM (inactive) | > 625 µM (inactive) | > 625 µM (inactive) | > 625 µM (inactive) | > 625 µM (inactive) | 618 µM (inactive) | > 625 µM (inactive) | –
13 | COc1ccccc1-c1cc(O)c2c(C)ccnc2n1 | 7.1 µM (inactive) | 41.2 µM (inactive) | – | 15.8 µM (inactive) | – | 29.7 µM (inactive) | 14.2 µM (inactive) | 6.1 µM (inactive) | 16.2 µM (inactive) | – | – | 37 µM (inactive) | – | – | 19.3 µM (inactive) | 52.4 µM (inactive) | 84.3 µM (inactive) | – | – | 11.5 µM (inactive)
